This note sets out measurements from ChEMBL document CHEMBL5715260, “Selectivity Literature for EUbOPEN Chemogenomic Library” (2024).

Parameters in all cases: recommended concentration 1 uM
In experiment [1] the target is T1, Hepatocyte nuclear factor 4-alpha (Homo sapiens) (UniProt P41235).
T1 sequence (whole entry): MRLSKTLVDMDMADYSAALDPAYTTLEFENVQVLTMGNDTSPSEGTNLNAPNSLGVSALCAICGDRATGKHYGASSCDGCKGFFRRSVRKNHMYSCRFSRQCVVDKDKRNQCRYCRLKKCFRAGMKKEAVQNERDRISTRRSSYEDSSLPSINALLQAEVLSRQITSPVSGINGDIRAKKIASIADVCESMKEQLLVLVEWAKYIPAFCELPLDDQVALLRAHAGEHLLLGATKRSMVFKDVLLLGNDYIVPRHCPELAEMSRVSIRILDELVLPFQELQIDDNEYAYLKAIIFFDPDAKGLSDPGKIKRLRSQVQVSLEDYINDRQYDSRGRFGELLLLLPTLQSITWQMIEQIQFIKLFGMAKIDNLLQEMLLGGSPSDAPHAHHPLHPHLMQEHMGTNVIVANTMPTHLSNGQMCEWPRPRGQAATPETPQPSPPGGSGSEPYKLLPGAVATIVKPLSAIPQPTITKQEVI
In words: Selectivity interaction (Reporter gene assay) EUB0000576a HNF4A. On the technique in general: A reporter such as luciferase makes a cellular process visible.

Experiment [2] has as its target T2, Nuclear receptor subfamily 2 group C member 1 (Homo sapiens) (UniProt P13056).
T2 sequence (whole entry): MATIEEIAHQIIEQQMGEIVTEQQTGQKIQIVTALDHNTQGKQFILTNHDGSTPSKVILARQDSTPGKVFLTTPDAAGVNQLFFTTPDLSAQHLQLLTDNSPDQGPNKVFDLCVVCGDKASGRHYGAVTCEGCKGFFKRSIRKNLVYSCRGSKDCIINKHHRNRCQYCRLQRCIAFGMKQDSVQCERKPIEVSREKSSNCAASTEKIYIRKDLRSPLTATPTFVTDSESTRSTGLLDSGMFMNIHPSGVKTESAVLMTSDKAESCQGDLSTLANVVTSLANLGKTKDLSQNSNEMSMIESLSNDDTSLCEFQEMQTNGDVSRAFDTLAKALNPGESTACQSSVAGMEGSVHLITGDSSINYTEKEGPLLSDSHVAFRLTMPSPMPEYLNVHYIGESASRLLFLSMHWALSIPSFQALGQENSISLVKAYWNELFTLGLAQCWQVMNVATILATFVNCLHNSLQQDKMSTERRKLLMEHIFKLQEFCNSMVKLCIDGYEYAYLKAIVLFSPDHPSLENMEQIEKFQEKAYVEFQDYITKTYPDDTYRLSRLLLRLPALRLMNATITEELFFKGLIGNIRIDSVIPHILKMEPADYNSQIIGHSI
In words: Selectivity interaction (Reporter gene assay) EUB0000576a NR2C1.

The target of experiment [3] is Nuclear receptor subfamily 2 group E member 1 (Homo sapiens) (UniProt Q9Y466). In words: Selectivity interaction (Reporter gene assay) EUB0000576a NR2E1.
For experiment [4], the target named is Nuclear receptor subfamily 4immunitygroup A member 1 (Homo sapiens) (UniProt P22736). In words: Selectivity interaction (Reporter gene assay) EUB0000576a NR4A1.
In experiment [5] the target is Steroidogenic factor 1 (Homo sapiens) (UniProt Q13285). Nature of the experiment: Selectivity interaction (Reporter gene assay) EUB0000576a NR5A1.
The target of experiment [6] is T3, Alpha trans-inducing protein (Human alphaherpesvirus 1) (UniProt A0A5J6DW59). In words: Selectivity interaction (Reporter gene assay) EUB0000576a UL48.
The target in experiment [7] is T4, Retinoic acid receptor RXR-alpha (Homo sapiens) (UniProt P19793).
T4 sequence (whole entry): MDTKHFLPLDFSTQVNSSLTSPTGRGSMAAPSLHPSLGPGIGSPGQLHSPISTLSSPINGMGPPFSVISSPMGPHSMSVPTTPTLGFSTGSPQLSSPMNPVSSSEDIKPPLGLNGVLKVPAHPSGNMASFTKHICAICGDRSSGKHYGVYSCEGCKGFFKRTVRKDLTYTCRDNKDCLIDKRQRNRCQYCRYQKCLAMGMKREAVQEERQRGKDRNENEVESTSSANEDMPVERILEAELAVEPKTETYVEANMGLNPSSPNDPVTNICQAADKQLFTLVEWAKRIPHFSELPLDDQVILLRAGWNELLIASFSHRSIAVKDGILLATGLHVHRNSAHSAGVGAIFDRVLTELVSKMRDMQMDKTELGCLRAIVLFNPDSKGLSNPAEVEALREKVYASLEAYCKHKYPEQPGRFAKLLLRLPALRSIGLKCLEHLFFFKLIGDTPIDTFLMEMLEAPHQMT
Nature of the experiment: Selectivity interaction (Reporter gene assay) EUB0000576a RXRA. Particulars: reference bexarotene 1 uM, Selectivity number of off-targets 0.0, Selectivity number of targets 1.0, Source Knowledge inhouse.

The target of experiment [8] is T1, Hepatocyte nuclear factor 4-alpha (Homo sapiens). In words: Selectivity interaction (Reporter gene assay) EUB0000570a HNF4A.
In experiment [9] the target is T2, Nuclear receptor subfamily 2 group C member 1 (Homo sapiens). Nature of the experiment: Selectivity interaction (Reporter gene assay) EUB0000570a NR2C1.
Experiment [10] deals with Nuclear receptor subfamily 2 group E member 1 (Homo sapiens) (UniProt Q9Y466). Nature of the experiment: Selectivity interaction (Reporter gene assay) EUB0000570a NR2E1.
The target in experiment [11] is Nuclear receptor subfamily 4immunitygroup A member 1 (Homo sapiens) (UniProt P22736). Nature of the experiment: Selectivity interaction (Reporter gene assay) EUB0000570a NR4A1.
Experiment [12] addresses Steroidogenic factor 1 (Homo sapiens) (UniProt Q13285). In words: Selectivity interaction (Reporter gene assay) EUB0000570a NR5A1.
Experiment [13] has as its target T3, Alpha trans-inducing protein (Human alphaherpesvirus 1). In words: Selectivity interaction (Reporter gene assay) EUB0000570a UL48.
The target of experiment [14] is T4, Retinoic acid receptor RXR-alpha (Homo sapiens). Nature of the experiment: Selectivity interaction (Reporter gene assay) EUB0000570a RXRA. Particulars: reference bexarotene 1 uM, Selectivity number of off-targets 0.0, Selectivity number of targets 1.0, Source Knowledge inhouse.
Experiment [15] deals with Peroxisome proliferator-activated receptor alpha (Homo sapiens) (UniProt Q07869). Nature of the experiment: Selectivity interaction (Reporter gene assay) EUB0000569a PPARA. Particulars: screened at recom. conc., Selectivity number of off-targets 2.0, Selectivity number of targets 19.0, Source Knowledge inhouse.
Experiment [16] concerns the target T5, Peroxisome proliferator-activated receptor gamma (Homo sapiens) (UniProt P37231).
T5 sequence (whole entry): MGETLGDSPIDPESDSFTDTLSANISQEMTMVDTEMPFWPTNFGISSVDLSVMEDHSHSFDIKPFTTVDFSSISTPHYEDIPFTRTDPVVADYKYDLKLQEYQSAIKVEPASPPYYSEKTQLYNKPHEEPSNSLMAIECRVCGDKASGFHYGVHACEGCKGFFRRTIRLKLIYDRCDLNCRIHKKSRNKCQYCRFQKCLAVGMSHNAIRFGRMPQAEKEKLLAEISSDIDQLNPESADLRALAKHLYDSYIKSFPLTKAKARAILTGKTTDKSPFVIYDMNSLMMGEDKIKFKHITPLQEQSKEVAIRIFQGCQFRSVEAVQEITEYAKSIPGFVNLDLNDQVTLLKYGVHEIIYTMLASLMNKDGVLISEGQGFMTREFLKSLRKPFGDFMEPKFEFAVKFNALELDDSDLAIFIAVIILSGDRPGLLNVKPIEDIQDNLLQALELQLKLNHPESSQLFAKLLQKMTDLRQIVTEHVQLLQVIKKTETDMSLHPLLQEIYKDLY
In words: Selectivity interaction (Reporter gene assay) EUB0000569a PPARG. Conditions: screened at recom. conc., Selectivity number of off-targets 2.0, Selectivity number of targets 19.0, Source Knowledge inhouse.

In experiment [17] the target is T1, Hepatocyte nuclear factor 4-alpha (Homo sapiens). Nature of the experiment: Selectivity interaction (Reporter gene assay) EUB0000569a HNF4A.
The target of experiment [18] is T2, Nuclear receptor subfamily 2 group C member 1 (Homo sapiens). Nature of the experiment: Selectivity interaction (Reporter gene assay) EUB0000569a NR2C1.
For experiment [19], the target named is Nuclear receptor subfamily 2 group E member 1 (Homo sapiens) (UniProt Q9Y466). In words: Selectivity interaction (Reporter gene assay) EUB0000569a NR2E1.
Experiment [20] addresses Nuclear receptor subfamily 4immunitygroup A member 1 (Homo sapiens) (UniProt P22736). In words: Selectivity interaction (Reporter gene assay) EUB0000569a NR4A1.
Experiment [21] deals with Steroidogenic factor 1 (Homo sapiens) (UniProt Q13285). In words: Selectivity interaction (Reporter gene assay) EUB0000569a NR5A1.
For experiment [22], the target named is T3, Alpha trans-inducing protein (Human alphaherpesvirus 1). Nature of the experiment: Selectivity interaction (Reporter gene assay) EUB0000569a UL48.
The target of experiment [23] is T4, Retinoic acid receptor RXR-alpha (Homo sapiens). Nature of the experiment: Selectivity interaction (Reporter gene assay) EUB0000569a RXRA.
The target of experiment [24] is T1, Hepatocyte nuclear factor 4-alpha (Homo sapiens). In words: Selectivity interaction (Reporter gene assay) EUB0000573a HNF4A.
Experiment [25] deals with T2, Nuclear receptor subfamily 2 group C member 1 (Homo sapiens). Nature of the experiment: Selectivity interaction (Reporter gene assay) EUB0000573a NR2C1.
Experiment [26] concerns the target Nuclear receptor subfamily 2 group E member 1 (Homo sapiens) (UniProt Q9Y466). In words: Selectivity interaction (Reporter gene assay) EUB0000573a NR2E1.
Experiment [27] has as its target Nuclear receptor subfamily 4immunitygroup A member 1 (Homo sapiens) (UniProt P22736). In words: Selectivity interaction (Reporter gene assay) EUB0000573a NR4A1.
Experiment [28] has as its target Steroidogenic factor 1 (Homo sapiens) (UniProt Q13285). In words: Selectivity interaction (Reporter gene assay) EUB0000573a NR5A1.
The target in experiment [29] is T3, Alpha trans-inducing protein (Human alphaherpesvirus 1). In words: Selectivity interaction (Reporter gene assay) EUB0000573a UL48.
The target of experiment [30] is T4, Retinoic acid receptor RXR-alpha (Homo sapiens). In words: Selectivity interaction (Reporter gene assay) EUB0000573a RXRA. Particulars: reference bexarotene 1 uM, Selectivity number of off-targets 0.0, Selectivity number of targets 1.0, Source Knowledge inhouse.

The structures appear in SMILES notation.

Nuclear receptor subfamily 4immunitygroup A member 1 (Homo sapiens), sequence (P22736 whole entry): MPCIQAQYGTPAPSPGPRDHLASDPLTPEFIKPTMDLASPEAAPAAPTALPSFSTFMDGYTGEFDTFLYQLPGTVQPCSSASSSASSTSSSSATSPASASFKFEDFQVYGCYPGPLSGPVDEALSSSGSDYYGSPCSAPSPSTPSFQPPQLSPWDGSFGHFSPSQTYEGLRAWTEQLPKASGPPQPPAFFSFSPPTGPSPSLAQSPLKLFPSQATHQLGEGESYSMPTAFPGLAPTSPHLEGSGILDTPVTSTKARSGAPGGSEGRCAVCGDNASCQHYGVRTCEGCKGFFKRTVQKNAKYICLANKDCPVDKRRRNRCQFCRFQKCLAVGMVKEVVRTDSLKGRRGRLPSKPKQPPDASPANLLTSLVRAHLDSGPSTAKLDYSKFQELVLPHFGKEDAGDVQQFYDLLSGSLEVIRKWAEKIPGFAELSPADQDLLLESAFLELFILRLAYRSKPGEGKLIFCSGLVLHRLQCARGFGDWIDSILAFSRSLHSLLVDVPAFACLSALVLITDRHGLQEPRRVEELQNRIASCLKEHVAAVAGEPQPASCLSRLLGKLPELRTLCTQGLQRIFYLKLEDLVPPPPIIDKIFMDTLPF
Nuclear receptor subfamily 2 group E member 1 (Homo sapiens), sequence (Q9Y466 whole entry): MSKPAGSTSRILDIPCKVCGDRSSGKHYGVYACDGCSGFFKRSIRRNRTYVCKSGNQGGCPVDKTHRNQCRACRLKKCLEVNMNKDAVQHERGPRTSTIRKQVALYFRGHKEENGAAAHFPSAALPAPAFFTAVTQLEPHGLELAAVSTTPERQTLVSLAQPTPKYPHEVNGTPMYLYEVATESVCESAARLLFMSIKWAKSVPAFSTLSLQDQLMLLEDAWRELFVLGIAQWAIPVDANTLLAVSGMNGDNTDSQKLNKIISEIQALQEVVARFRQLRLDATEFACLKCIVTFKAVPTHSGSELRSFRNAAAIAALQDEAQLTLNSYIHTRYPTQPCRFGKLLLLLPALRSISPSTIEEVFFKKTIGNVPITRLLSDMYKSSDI
T3 sequence (A0A5J6DW59 as listed by the source): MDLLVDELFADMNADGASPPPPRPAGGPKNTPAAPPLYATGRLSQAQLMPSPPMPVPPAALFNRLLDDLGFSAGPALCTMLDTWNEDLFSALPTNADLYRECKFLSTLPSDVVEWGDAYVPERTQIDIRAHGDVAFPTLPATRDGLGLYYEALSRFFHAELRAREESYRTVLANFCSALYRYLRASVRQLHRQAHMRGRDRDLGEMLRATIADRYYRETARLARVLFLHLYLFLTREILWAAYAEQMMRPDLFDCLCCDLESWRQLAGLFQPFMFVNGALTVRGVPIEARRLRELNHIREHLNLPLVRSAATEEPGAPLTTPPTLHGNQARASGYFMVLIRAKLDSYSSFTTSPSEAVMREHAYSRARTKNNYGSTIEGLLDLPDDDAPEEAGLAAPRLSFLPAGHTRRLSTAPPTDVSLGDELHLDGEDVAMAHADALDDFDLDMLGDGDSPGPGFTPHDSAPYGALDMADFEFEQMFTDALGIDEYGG
Steroidogenic factor 1 (Homo sapiens), sequence (Q13285 whole entry): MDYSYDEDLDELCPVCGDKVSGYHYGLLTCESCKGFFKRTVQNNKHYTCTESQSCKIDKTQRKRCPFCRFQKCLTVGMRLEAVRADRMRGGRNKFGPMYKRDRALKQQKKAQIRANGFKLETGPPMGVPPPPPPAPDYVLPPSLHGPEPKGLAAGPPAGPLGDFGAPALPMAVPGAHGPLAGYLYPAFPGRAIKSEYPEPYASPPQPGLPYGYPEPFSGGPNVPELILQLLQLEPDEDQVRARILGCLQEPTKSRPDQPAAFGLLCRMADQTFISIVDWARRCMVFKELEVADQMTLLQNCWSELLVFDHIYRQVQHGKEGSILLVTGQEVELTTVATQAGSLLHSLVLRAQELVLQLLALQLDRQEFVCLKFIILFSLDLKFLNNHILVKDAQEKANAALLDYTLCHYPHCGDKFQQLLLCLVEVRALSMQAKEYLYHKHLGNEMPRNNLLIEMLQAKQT
Peroxisome proliferator-activated receptor alpha (Homo sapiens), sequence (Q07869 whole entry): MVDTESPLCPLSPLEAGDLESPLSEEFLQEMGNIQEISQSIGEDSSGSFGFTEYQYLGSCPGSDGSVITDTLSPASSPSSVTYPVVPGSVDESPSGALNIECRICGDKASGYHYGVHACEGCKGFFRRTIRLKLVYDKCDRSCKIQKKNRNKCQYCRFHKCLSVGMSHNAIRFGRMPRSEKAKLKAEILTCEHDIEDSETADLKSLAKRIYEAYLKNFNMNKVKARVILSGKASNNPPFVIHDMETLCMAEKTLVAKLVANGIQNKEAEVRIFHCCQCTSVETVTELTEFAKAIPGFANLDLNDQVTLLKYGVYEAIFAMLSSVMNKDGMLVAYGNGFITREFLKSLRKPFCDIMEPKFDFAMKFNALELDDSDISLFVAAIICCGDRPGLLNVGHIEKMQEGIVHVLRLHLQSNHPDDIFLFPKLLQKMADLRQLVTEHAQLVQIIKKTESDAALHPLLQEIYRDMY

Turning to `CCOP(=O)(OCC)C(=Cc1cc(C(C)(C)C)c(O)c(C(C)(C)C)c1)P(=O)(OCC)OCC`, the figures for the Remaining activity in experiment [1], in experiment [3] and in [4] were 0.935, 0.795 and 0.959, respectively. Besides, the Fold activation is 1.37 in experiment [2] and 1.01 in [5]. This compound returned a P-value in [6] of 0.0136. This compound also came in with a Relative activation in experiment [7] of 0.581%.

Take `CN(CCOc1ccc(C[C@H](Nc2ccccc2C(=O)c2ccccc2)C(=O)O)cc1)c1ccccn1`: the Remaining activity in experiment [8] was found to be 0.831; in [10] it was 0.776; in experiment [11], 0.85; in experiment [12], 0.849. The Fold activation in [9] amounted to 1.03. The P-value in experiment [13] was found to be 1.12e-05. This compound showed a Relative activation in experiment [14] of 0.731%.

`Cc1cc(SCc2sc(-c3ccc(C(F)(F)F)c(F)c3)nc2C)ccc1OCC(=O)O`: the Fold activation amounted to 14.8 in [15]; 10.5 in experiment [16]; 1.11 in experiment [17]; 1.31 in experiment [18]; 1.36 in [19]; 1.17 in experiment [20]. Further, in experiment [21], the Fold activation came to 1.02. The same compound came in with a P-value in experiment [22] of 0.0031. The compound further came in with a Relative activation in [23] of 0.693%.

Take `CC(C)OC(=O)C1=CN(C(=O)c2ccc(F)c(F)c2)CC(C)(C)c2c1[nH]c1ccccc21`: the Fold activation in experiment [24] was 1.02; in [25], 1.3; in experiment [26], 1.46; in experiment [27] it was 1.03; in experiment [28] it was 1.12. Further, the P-value in experiment [29] is 1.36e-05. This compound also had a Relative activation in experiment [30] of 0.671%.
